Laboratory results: ChEMBL document CHEMBL4765311, “Synthesis and biological evaluation of 4-(pyridin-4-oxy)-3-(3,3-difluorocyclobutyl)-pyrazole derivatives as novel potent transforming growth factor-β type 1 receptor inhibitors” (Eur J Med Chem, 2020)

Experiments:
in vivo [1] = settings: BALB/c, mouse, iv, 1 mg/kg
in vivo [2] = settings: BALB/c, mouse, iv, 1 mg/kg; remark: listed apart in the source
in vivo [3] = settings: BALB/c, mouse, iv, 1 mg/kg; remark: listed apart in the source
in vivo [4] = settings: BALB/c, mouse, po, 10 mg/kg
in vivo [5] = settings: BALB/c, mouse, po, 10 mg/kg; remark: listed apart in the source
in vivo [6] = settings: BALB/c, mouse, po, 10 mg/kg; remark: listed apart in the source

- half-life at 24 h (in vivo [1]): 24 min
- clearance at 24 h (in vivo [2]): 86.7 mL/min/kg
- Vd at 24 h (in vivo [3]): 2.3 L/kg
- half-life at 24 h (in vivo [4]): 66 min
- Cmax at 24 h (in vivo [5]): 747 ng/mL
- bioavailability at 24 h (in vivo [6]): 45.6%
SMILES: CC(C)(O)c1cc(Nc2cc(Oc3cn(C4CC4)nc3C3CCOCC3)ccn2)ccn1 [LY-3200882]
